Source: patent US9096639B2, “17-hydroxy-17-pentafluorethyl-estra-4,9(10)-dien-11-acyloxyalkylene phenyl derivatives, methods for the production thereof and use thereof for treating diseases” (Bayer Intellectual Property GmbH, priority 2009, dated 2015)
Structures can show the parent of a compound that is named as a salt.

Assays:
[1] = target: T1, human progesterone receptor B (Homo sapiens, UniProt P06401); test: Progesterone receptor transactivation test in stably transfected SK-N-MC cells (PR-B, MMTV-LUC reporter); format: cell-based; conditions: 0.1 nmol/l promegestone, 24 hours, read-out: PR-B IC50 (antagonistic potency)
T1 construct: expressed in transfected cells; host or cells: SK-N-MC human neuroblastoma cells, stably transfected with pRChPR-B-neo and pMMTV-LUC
T1 sequence (P06401 1-933): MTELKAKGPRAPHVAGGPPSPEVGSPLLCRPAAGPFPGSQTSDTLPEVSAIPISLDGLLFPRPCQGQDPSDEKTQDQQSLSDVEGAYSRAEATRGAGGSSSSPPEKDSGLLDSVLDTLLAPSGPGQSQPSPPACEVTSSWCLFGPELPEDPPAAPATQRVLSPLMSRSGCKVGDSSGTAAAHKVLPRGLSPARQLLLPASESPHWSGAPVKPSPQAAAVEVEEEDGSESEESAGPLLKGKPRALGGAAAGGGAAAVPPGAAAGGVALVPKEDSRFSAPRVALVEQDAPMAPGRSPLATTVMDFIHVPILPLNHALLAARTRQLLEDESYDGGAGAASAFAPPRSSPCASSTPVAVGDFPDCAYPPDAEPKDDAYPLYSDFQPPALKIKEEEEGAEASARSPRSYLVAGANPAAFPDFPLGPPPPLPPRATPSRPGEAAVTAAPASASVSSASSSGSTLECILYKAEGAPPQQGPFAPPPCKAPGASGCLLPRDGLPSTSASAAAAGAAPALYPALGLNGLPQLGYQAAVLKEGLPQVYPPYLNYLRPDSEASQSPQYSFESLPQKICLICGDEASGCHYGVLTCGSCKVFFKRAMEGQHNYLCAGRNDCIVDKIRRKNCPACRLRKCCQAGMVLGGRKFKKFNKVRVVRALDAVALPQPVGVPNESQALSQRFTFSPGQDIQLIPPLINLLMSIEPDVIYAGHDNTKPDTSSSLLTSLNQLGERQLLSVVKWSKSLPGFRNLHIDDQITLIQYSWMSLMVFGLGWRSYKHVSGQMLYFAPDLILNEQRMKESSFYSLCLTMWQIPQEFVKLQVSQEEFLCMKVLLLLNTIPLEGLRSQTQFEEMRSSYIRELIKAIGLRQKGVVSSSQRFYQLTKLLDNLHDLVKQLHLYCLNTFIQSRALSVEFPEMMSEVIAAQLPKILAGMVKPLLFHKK
Description: (§1) Progesterone receptor-antagonistic action in stable transfectants of human neuroblastoma cells (SK-N-MC cells) with the human progesterone A or progesterone B receptor and an MN-LUC reporter construct SK-N-MC cells (human neuroblastoma cells) which have been stably transfected with plasmids expressing the human progesterone receptor B (pRChPR-B-neo) or the human progesterone receptor A (pRChPR-A-neo) and a reporter construct (pMMTV-LUC) were incubated for 24 hours either in the absence (negative control) or in the presence of ascending amounts of the particular test compound (0.01 nmol/l, 0.1 nmol/l, 1 […], 100 nmol/l and […]), in order to determine the agonistic efficacy. As a positive control of the reporter gene induction, the cells were treated with the synthetic gestagen promegestone (0.01 nmol/l, 0.1 nmol/l, 1 nmol/l, 10 nmol/l, 100 nmol/l and […]). To determine the antagonistic activity, the cells were treated with 0.1 nmol/l promegestone and additionally with ascending amounts of the particular test compound (0.01 nmol/l, 0.1 nmol/l, 1 nmol/l, 10 nmol/l, 100 nmol/l and […]). The activity of the reporter gene LUC (LUC=luciferase) was determined in the cell lysates and measured as RLU (relative light units). All measurements are reported as % efficacy and as EC50 and IC50 concentrations.

[2] = target: T2, human progesterone receptor A (Homo sapiens, UniProt P06401); test: Progesterone receptor transactivation test in stably transfected SK-N-MC cells (PR-A, MMTV-LUC reporter); format: cell-based; conditions: 0.1 nmol/l promegestone, 24 hours, read-out: PR-A IC50 (antagonistic potency)
T2 construct: expressed in transfected cells; host or cells: SK-N-MC human neuroblastoma cells, stably transfected with pRChPR-A-neo and pMMTV-LUC
T2 sequence (P06401 1-769 isoform P06401-2): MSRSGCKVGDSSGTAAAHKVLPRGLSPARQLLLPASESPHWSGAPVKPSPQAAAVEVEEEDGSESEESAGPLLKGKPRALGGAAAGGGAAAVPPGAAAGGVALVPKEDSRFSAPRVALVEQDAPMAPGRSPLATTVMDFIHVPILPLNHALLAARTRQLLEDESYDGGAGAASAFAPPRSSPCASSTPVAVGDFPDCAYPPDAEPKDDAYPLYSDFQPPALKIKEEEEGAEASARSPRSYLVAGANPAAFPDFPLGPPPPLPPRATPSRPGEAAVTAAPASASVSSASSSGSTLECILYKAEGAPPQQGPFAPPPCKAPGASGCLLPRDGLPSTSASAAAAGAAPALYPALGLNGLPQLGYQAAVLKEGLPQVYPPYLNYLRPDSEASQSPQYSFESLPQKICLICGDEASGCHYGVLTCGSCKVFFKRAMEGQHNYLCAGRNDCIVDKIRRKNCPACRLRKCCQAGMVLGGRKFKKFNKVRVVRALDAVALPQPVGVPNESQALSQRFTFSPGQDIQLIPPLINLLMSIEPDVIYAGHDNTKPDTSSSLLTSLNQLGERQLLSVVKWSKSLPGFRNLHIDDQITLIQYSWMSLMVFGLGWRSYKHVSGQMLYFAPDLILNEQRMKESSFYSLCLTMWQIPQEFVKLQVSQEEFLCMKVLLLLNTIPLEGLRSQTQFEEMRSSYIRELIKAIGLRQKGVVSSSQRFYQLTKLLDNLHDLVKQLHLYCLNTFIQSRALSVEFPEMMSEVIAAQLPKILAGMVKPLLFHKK
Description: as §1

[3] = Determination of stability in human plasma; format: in vitro ADME
Description: (§2) A stock solution of 1.0 mg of the substance to be tested in a 9:1 mixture of acetonitrile and dimethyl sulphoxide was prepared. 20 μl of this stock solution were added at 37° C. to 1 ml of human plasma or rat plasma. To determine the content, 100 μl samples were each taken at different times. The enzyme activity was blocked by adding 300 μl of acetonitrile, the samples were centrifuged at 5000 rpm over 10 minutes and, in the supernatant, the content of ester and hydrolysis products (8S,11R,13S,14S,17S)-17-hydroxy-11-[4-((R)-1-hydroxyethyl)phenyl]-1 3-methyl-17-pentafluoroethyl-1,2,6,7,8,11,12,13,14,15,16,17-dodecahydrocyclopenta[a]phenanthren-3-one and/or (8S,11R,13S,14S,17S)-17-hydroxy-11-[4-((S)-1-hydroxyethyl)phenyl]-13-methyl-17-pentafluoroethyl-1,2,6,7,8,11,12,13,14,15,16,17-dodecahydrocyclopenta[a]phenanthrene-3-one was determined by HPLC. The concentration-time curves were used to calculate the degradation kinetics. The stability of the substance tested was reported as the half-life.

[4] = Determination of hydrolytic stability (5:1 dioxane/buffer, HPLC); format: physicochemical; conditions: 5:1 dioxane/buffer solution, test ended after 24 or 192 hours, read-out: Hydrolytic stability t1/2
Description: The ester to be analyzed was dissolved in each case in a 5:1 mixture of dioxane and buffer solution (pH 1.2, pH 5.0 or pH 8.0) at 23° C. At different times, the content of ester and hydrolysis products (8S,11R,13S,14S,1 7S)-17-hydroxy-11-[4-((R)-1-hydroxyethyl)phenyl]-13-methyl-17-pentafluoroethyl-1,2,6,7,8,11,12,13,14,15,16,17-dodecahydrocyclopenta[a]phenanthren-3-one and/or (8S,11R,13S,14S,17S)-17-hydroxy-11-[4-((S)-1-hydroxyethyl)phenyl]-1 3-methyl-17-pentafluoroethyl-1,2,6,7,8,11,12,13,14,15,16,17-dodecahydrocyclopenta[a]phenanthren-3-one was determined by HPLC. The test was ended after 24 hours or 192 hours.

[5] = Determination of stability in rat plasma; format: in vitro ADME; conditions: 37° C., read-out: Stability t1/2 in rat plasma (converted)
Description: as §2

[6] = 37° C., read-out: Stability t1/2 in human plasma (converted)
[7] = method of working example 19, summary statement in description, read-out: half-life in human plasma

| SMILES | IC50 [1] | IC50 [2] | half-life [3, 6] | half-life [3, 7] | half-life ([4]; pH = 1.2, 23° C.) | half-life ([4]; pH = 8.0, 23° C.) | half-life [5] |
| --- | --- | --- | --- | --- | --- | --- | --- |
| CC(OC(=O)[C@@H]1CCCN1C(=O)OC(C)(C)C)c1ccc([C@H]2C[C@@]3(C)C(CC[C@@]3(O)C(F)(F)C(F)(F)F)C3CCC4=CC(=O)CCC4=C32)cc1 (mixture of isomers) [Example 11, (S)-Pyrrolidine-1,2-dicarboxylic acid 1-tert-butyl ester 2-{(RS)-1-[4-((8S,11R,13S,14S,17S)-17-hydroxy-13-methyl-3-oxo-17-pentafluoroethyl-2,3,6,7,8,11,12,13,14,15,16,17-dodecahydro-1H-cyclopenta[a]phenanthren-11-yl)phenyl]ethyl}ester] | 0.05 nM | 0.1 nM | > 1000 h | > 100 h | > 192 h | > 192 h | 462 h |
| CC(OC(=O)[C@@H]1CCCN1)c1ccc([C@H]2C[C@@]3(C)C(CC[C@@]3(O)C(F)(F)C(F)(F)F)C3CCC4=CC(=O)CCC4=C32)cc1 (mixture of isomers) [Example 13, (S)-Pyrrolidine-2-carboxylic acid (RS)-1-[4-((8S,11R,13S,14S,17S)-17-hydroxy-13-methyl-3-oxo-17-pentafluoroethyl-2,3,6,7,8,11,12,13,14,15,16,17-dodecahydro-1H-cyclopenta[a]phenanthren-11-yl)phenyl]ethyl ester hydrochloride] | 0.74 nM | 0.27 nM | 9.7 h | – | > 192 h | > 192 h | 5.3 h |
| CC(OC(=O)CCc1nccs1)c1ccc([C@H]2C[C@@]3(C)C(CC[C@@]3(O)C(F)(F)C(F)(F)F)C3CCC4=CC(=O)CCC4=C32)cc1 (mixture of isomers) [Example 15, 3-Thiazol-2-ylpropionic acid (RS)-1-[4-((8S,11R,13S,14S,17S)-17-hydroxy-13-methyl-3-oxo-17-pentafluoroethyl-2,3,6,7,8,11,12,13,14,15,16,17-dodecahydro-1H-cyclopenta[a]phenanthren-11-yl)phenyl]ethyl ester] | 0.1 nM | 0.1 nM | 131 h | > 100 h | > 192 h | > 192 h | 1.2 h |
| C=CCOC(=O)N[C@@H](C)C(=O)O[C@H](C)c1ccc([C@H]2C[C@@]3(C)[C@@H](CC[C@@]3(O)C(F)(F)C(F)(F)F)[C@@H]3CCC4=CC(=O)CCC4=C32)cc1 [Example 9, (S)-2-Allyloxycarbonylaminopropionic acid (R)-1-[4-((8S,11R,13S,14S,17S)-17-hydroxy-13-methyl-3-oxo-17-pentafluoroethyl-2,3,6,7,8,11,12,13,14,15,16,17-dodecahydro-1H-cyclopenta[a]phenanthren-11-yl)phenyl]ethyl ester] | 0.09 nM | 0.01 nM | 231 h | > 100 h | – | – | 0.3 h |
| C=CCOC(=O)N[C@@H](C)C(=O)O[C@@H](C)c1ccc([C@H]2C[C@@]3(C)[C@@H](CC[C@@]3(O)C(F)(F)C(F)(F)F)[C@@H]3CCC4=CC(=O)CCC4=C32)cc1 [Example 10, (S)-2-Allyloxycarbonylaminopropionic acid (S)-1-[4-((8S,11R,13S,14S,17S)-17-hydroxy-13-methyl-3-oxo-17-pentafluoroethyl-2,3,6,7,8,11,12,13,14,15,16,17-dodecahydro-1H-cyclopenta[a]phenanthren-11-yl)phenyl]ethy lester] | 0.09 nM | 0.08 nM | 22.9 h | – | – | – | 3.6 h |

More lines, now with the values ahead:

| IC50 [1] | IC50 [2] | half-life [3, 6] | half-life [3, 7] | half-life ([4]; pH = 1.2, 23° C.) | half-life ([4]; pH = 8.0, 23° C.) | half-life [5] | SMILES |
| --- | --- | --- | --- | --- | --- | --- | --- |
| 0.29 nM | 0.18 nM | 190 h | > 100 h | – | – | 48.5 h | Cc1nccn1CCC(=O)O[C@@H](C)c1ccc([C@H]2C[C@@]3(C)[C@@H](CC[C@@]3(O)C(F)(F)C(F)(F)F)[C@@H]3CCC4=CC(=O)CCC4=C32)cc1 (single isomer, unassigned) [Example 14A] |
| 0.15 nM | 0.29 nM | 19.8 h | – | – | – | 0.8 h | Cc1nccn1CCC(=O)O[C@H](C)c1ccc([C@H]2C[C@@]3(C)[C@@H](CC[C@@]3(O)C(F)(F)C(F)(F)F)[C@@H]3CCC4=CC(=O)CCC4=C32)cc1 (single isomer, unassigned) [Example 14B] |
